The values that follow are results of earlier work, collected in patent publication US20260297044A1, “INHIBITORS OF SPINSTER HOMOLOG 2 (SPNS2) FOR USE IN THERAPY” (University of Virginia Patent Foundation, priority 2023, published 2026).

This data set concerns Spns2. Particulars: two models of kidney fibrosis, mice.

In the case of `CCCCCCCCCCc1ccc(-c2noc(CCCN)n2)cc1` [SLF1081851], the fibrosis entry was “significantly less fibrosis” and the “function of the injured kidney” value was “improved function of the injured kidney”.
